Here are results for one compound from article PMC6066978, “Chronic Intermittent Hypoxia-Induced Vascular Dysfunction in Rats is Reverted by N-Acetylcysteine Supplementation and Arginase Inhibition” (Frontiers in Physiology, 2018).

For the test, the target named is arginase. Description: arginase activity (urea production, ISPF colorimetric) in human placental homogenate. The test is classed as biochemical.

`N[C@@H](CCCCB(O)O)C(=O)O` [ABH, 2(S)-amino-6-boronohexanoic acid] gave a Ki of 4.78 ± 1.76 µM.
